Data published in ChEMBL document CHEMBL1201862, “PubChem BioAssay data set” (2004).
The source made the active and inactive calls.

Columns and labels:
[1] = target: Lysosomal acid glucosylceramidase (Homo sapiens, UniProt P04062); assay: Dose response cell-based high throughput screening assay to identify enhancers of beta-glucosidase activity. [Related pubchem assays: 784 ]; format: functional
[2] = target: DNA dC->dU-editing enzyme APOBEC-3A (Homo sapiens, UniProt P31941); assay: APOBEC3A DNA deaminase inhibitors, dose response, biochemical (AID 504722); format: functional
[3] = target: T1, Mannose-6-phosphate isomerase (Homo sapiens, UniProt P34949); assay: inhibitors of human PMI, primary screen, biochemical, fluorescence intensity, coupled assay (AID 1209)
T1 sequence (P34949 whole entry): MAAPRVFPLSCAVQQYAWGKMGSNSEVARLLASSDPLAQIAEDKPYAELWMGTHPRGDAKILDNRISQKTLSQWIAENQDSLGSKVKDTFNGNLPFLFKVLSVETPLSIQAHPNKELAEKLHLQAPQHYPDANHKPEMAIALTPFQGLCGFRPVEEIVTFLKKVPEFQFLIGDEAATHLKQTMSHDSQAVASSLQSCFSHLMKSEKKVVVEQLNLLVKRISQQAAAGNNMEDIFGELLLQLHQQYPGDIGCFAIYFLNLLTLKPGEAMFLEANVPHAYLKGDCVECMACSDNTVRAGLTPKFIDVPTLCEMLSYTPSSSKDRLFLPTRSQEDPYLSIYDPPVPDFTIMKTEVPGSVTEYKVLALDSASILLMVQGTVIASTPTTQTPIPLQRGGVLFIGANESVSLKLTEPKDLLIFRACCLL

Procathepsin L = Procathepsin L (Homo sapiens, UniProt P07711)
[4] = target: DNA dC->dU-editing enzyme APOBEC-3G (Homo sapiens, UniProt Q9HC16); assay: Dose Response confirmation of small molecule APOBEC3G DNA Deaminase Inhibitors via a fluorescence-based single-stranded DNA deaminase assay. [Related pubchem assays (depositor defined):AID493012, AID493028]; format: functional
Aspartyl aminopeptidase = Aspartyl aminopeptidase (Plasmodium falciparum 3D7, UniProt Q8I2J3)
[5] = target: T1, Mannose-6-phosphate isomerase; assay: human PMI inhibitors, high substrate, primary screen, biochemical, fluorescence intensity, high mannose 6-phosphate (AID 1220)
HeLa = assay: HeLa cell cytotoxicity, dose response, cytotoxicity control, 24 h, cherry-picked samples (AID 504726); format: functional, cell-based; settings: Homo sapiens;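 note: potency for cytotoxicity as loss of luminescence signal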
[6] = target: G-protein coupled receptor 55 (Homo sapiens, UniProt Q9Y2T6); assay: GPR55 agonists via beta-arrestin recruitment, primary screen, imaging, U2OS cells, beta-arrestin-GFP redistribution (AID 1961); format: functional
Cytochrome P450 2C9 = Cytochrome P450 2C9 (Homo sapiens, UniProt P11712); settings: Potency
Chaperone protein dnaK = Chaperone protein dnaK (Escherichia coli, UniProt C3TRK2); assay: DnaK beta-domain binding affinity, SAR follow-up, orthogonal assay for DnaK modulator project, biophysical, isothermal titration calorimetry, full-length DnaK (AID 1495)
Bcl-2-like protein 10 = Bcl-2-like protein 10 (Homo sapiens, UniProt Q9HD36); assay: displacers of TR3 peptide from Bcl-B, primary screen, selectivity assay for Bfl-1 inhibitor project, biochemical, fluorescence polarization, FITC-TR3 peptide (AID 748);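 note: fluorescence polarization from a fluorescein-labelled TR3 peptide binding purified Bcl-B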
[7] = target: Dual specificity protein phosphatase 3 (Homo sapiens, UniProt P51452); assay: Dose Response Confirmation of compounds that inhibit VHR1 in Fluorescent Assay. [Related pubchem assays (depositor defined):AID1661, AID1878]; format: functional
[8] = target: T2, Tyrosine-protein phosphatase non-receptor type 7 (Homo sapiens, UniProt P35236); assay: Dose Response confirmation of compounds that inhibit HePTP. [Related pubchem assays (depositor defined):AID1059, AID1661, AID2085]; format: functional
T2 sequence (P35236 whole entry): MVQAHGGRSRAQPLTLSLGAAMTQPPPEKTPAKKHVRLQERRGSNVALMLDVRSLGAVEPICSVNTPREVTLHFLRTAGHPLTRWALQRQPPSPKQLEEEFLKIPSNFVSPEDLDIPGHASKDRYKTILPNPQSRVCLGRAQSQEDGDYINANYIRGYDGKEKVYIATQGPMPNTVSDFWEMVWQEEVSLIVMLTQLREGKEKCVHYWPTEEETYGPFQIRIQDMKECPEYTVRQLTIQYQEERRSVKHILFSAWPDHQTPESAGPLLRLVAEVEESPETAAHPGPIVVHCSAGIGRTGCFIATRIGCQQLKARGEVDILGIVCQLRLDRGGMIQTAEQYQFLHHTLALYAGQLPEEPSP

Phosphomannomutase 2 = Phosphomannomutase 2 (Homo sapiens, UniProt O15305); assay: Counter screen SAR assay for PMM2 inhibitors via a fluorescence intensity assay. [Related pubchem assays (depositor defined):AID1545, AID1574]
[9] = target: T1, Mannose-6-phosphate isomerase; assay: PMI enzyme inhibitors, confirmation, biochemical, fluorescence intensity (AID 1535)
[10] = target: Phosphoethanolamine/phosphocholine phosphatase (Homo sapiens, UniProt Q8TCT1); assay: SAR assay for compounds that inhibit PHOSPHO1. [Related pubchem assays (depositor defined):AID1545, AID1565, AID1574]
[11] = target: Kappa-type opioid receptor (Homo sapiens, UniProt P41145); assay: SAR analysis of small molecule agonists of the kappa opioid receptor via a luminescent beta-arrestin assay - Set 2. [Related pubchem assays (depositor defined):AID1777, AID1785, AID1786, AID1966, AID2133, AID2136, AID2284, AID449737]; format: functional
[12] = cytotoxicity in HPDE-C7 cells, cell-based, fluorescence, HTS (AID 430); format: functional; settings: Homo sapiens
[13] = target: T3, Intestinal-type alkaline phosphatase (Homo sapiens, UniProt P09923); assay: human intestinal alkaline phosphatase activators, dose response, biochemical, luminescence, uHTS hits (AID 463120); format: functional
[14] = target: T4, Alkaline phosphatase, tissue-nonspecific isozyme (Homo sapiens, UniProt P05186); assay: TNAP enzyme activators, dose response, selectivity assay for human IAP activator project, biochemical, TNAP isozyme, human IAP uHTS hits (AID 488886); format: functional;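 note: potency of compounds raising TNAP activity as a selectivity check on IAP activators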
T4 sequence (P05186 whole entry): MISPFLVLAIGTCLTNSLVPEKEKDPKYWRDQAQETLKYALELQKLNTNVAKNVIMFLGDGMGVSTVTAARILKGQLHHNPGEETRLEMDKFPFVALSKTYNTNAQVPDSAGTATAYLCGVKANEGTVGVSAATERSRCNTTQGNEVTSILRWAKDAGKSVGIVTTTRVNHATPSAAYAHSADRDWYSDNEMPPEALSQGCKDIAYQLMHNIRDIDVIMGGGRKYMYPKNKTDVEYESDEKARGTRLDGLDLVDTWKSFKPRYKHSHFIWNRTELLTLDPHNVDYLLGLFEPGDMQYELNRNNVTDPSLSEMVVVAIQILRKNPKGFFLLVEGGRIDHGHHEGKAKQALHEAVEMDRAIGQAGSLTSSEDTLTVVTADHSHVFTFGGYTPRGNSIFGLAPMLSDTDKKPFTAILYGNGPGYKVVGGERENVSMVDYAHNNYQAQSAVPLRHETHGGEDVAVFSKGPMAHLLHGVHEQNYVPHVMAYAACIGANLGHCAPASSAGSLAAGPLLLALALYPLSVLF

[15] = target: T3, Intestinal-type alkaline phosphatase; assay: human IAP activators, dose response, biochemical, luminescent, uHTS hits, set 2 (AID 488817); format: functional;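 note: potency of activators that raise enzyme activity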
[16] = cytotoxicity in KRAS-transformed pancreatic duct cells, primary screen, cell-based, fluorescence, HTS (AID 431); format: functional; settings: Homo sapiens;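 note: cell line used: HPDE-C7K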
[17] = target: Intestinal-type alkaline phosphatase (Mus musculus, UniProt P24822); assay: PubChem AID 488874; format: functional
[18] = target: Polyadenylate-binding protein 1 (Homo sapiens, UniProt P11940); assay: PABP inhibition in translation initiation, SAR follow-up (AID 435018); format: functional
[19] = target: Eukaryotic translation initiation factor 4H (Homo sapiens, UniProt Q15056); assay: eIF4H inhibition in translation initiation, SAR follow-up (AID 435011); format: functional
[20] = system: Streptococcus sp. 'group A'; assay: growth inhibition of control SK(-) GAS strain, dose response, counter-screen for streptokinase expression inhibitor project, luminescence, kanamycin, BacTiterGlo, confirmation (AID 1900); format: functional, organism-based
Streptokinase A = target: T5, Streptokinase A (Streptococcus pyogenes serotype M1, UniProt P10520); assay: S. pyogenes streptokinase expression inhibitors, potency, dose response, plasminogen activation absorbance, OD405 (AID 1914); format: functional, Streptococcus pyogenes M1 GAS;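 note: secreted streptokinase activity via plasminogen activation per viability signal from cell pellet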
T5 sequence (P10520 whole entry): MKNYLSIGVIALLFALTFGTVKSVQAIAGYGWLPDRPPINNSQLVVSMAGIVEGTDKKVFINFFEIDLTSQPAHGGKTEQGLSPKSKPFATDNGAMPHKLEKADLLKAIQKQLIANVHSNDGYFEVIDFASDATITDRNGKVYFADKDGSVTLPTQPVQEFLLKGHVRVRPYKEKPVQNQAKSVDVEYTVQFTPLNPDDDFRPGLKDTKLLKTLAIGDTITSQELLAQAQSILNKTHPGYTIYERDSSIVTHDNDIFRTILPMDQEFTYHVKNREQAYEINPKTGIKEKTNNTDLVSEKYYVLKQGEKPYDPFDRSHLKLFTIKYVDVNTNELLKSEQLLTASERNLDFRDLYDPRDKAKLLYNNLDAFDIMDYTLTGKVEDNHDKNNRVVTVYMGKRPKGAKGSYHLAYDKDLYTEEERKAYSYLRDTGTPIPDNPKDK

Streptococcus [21] = assay: Luminescence Microorganism-Based Dose Response Follow up to Identify Compounds Cytotoxic to Streptococcus. [Related pubchem assays: 1677 (Project Summary), 1915, 1914, 1902 (Retest at Dose), 1900 (Counter Screen), 1662 (Primary HTS)]; format: functional, organism-based
Streptococcus [22] = assay: Group A Streptococcus viability loss, dose response, counter-screen for streptokinase expression inhibitor project, luminescence, BacTiterGlo (AID 1915); format: functional, organism-based;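 note: potency for reduction of bacterial viability or growth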
Staphylococcus aureus = assay: Inhibitors of Bacterial Quorum Sensing Structure Activity Relationship (SAR) Analysis: Dose Response Assay. [Related pubchem assays: 700, 527 ]; format: functional, organism-based
[23] = target: Melanin-concentrating hormone receptor 1 (Homo sapiens, UniProt Q99705); assay: Fluorescence-based counterscreen for antagonists of the G-protein coupled receptor 7 (GPR7): cell-based high throughput dose response assay to identify antagonists of the melanin-concentrating hormone receptor 1 (MCHR1).; format: functional
[24] = target: Neuropeptides B/W receptor type 1 (Homo sapiens, UniProt P48145); assay: Fluorescence-based dose response cell-based high throughput screening assay to identify antagonists of the G-protein coupled receptor 7 (GPR7). [Related pubchem assays: 1952 (Screening assay (GPR7 antagonists).), 1880 (Summary AID.)]; format: functional

T3 sequence (P09923 whole entry): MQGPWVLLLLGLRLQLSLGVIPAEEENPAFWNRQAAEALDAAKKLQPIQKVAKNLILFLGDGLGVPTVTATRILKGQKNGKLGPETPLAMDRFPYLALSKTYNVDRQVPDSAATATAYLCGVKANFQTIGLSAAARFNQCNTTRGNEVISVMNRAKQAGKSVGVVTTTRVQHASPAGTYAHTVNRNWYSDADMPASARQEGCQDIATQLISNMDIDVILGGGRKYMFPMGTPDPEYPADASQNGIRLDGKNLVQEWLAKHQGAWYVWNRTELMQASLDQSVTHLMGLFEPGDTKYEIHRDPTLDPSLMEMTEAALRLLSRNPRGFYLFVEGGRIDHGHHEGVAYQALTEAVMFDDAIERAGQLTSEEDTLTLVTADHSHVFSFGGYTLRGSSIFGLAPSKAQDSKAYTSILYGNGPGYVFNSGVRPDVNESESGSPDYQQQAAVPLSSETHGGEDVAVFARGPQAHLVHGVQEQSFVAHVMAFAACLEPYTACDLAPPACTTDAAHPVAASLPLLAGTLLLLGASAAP
Sequence of DNA dC->dU-editing enzyme APOBEC-3A (P31941 whole entry): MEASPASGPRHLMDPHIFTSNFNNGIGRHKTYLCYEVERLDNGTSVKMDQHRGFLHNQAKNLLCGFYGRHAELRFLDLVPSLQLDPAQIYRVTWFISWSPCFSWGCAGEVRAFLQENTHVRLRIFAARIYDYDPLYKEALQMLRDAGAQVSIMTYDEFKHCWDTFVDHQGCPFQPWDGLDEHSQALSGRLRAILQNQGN
Sequence of Lysosomal acid glucosylceramidase (P04062 whole entry): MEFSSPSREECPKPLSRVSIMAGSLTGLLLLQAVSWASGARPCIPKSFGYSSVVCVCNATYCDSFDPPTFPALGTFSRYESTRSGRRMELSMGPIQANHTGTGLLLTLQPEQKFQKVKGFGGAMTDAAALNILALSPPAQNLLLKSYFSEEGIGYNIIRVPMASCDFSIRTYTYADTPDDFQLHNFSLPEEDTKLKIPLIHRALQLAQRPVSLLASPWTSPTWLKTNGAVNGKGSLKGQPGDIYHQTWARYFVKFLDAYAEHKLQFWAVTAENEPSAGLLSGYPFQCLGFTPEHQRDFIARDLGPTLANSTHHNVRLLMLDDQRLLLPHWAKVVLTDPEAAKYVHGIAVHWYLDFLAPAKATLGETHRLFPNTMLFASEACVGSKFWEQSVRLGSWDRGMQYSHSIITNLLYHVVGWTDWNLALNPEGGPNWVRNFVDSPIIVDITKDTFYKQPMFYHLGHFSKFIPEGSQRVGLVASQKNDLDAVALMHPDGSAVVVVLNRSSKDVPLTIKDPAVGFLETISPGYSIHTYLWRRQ
Sequence of Dual specificity protein phosphatase 3 (P51452 whole entry): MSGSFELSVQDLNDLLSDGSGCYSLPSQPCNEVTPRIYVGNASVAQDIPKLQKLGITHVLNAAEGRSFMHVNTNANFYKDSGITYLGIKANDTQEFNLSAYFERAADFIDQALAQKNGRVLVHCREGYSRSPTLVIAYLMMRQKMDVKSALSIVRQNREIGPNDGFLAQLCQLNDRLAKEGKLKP
Sequence of DNA dC->dU-editing enzyme APOBEC-3G (Q9HC16 whole entry): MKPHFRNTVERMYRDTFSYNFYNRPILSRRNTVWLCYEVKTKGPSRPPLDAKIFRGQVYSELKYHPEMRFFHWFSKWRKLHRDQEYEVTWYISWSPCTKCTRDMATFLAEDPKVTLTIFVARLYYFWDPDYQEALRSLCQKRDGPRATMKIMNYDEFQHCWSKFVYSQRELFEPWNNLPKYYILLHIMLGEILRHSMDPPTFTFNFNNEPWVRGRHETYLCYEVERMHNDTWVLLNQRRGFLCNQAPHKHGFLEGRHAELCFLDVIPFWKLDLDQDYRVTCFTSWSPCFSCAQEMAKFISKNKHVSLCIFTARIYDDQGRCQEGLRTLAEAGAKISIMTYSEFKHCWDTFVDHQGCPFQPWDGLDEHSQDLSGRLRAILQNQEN
Sequence of Polyadenylate-binding protein 1 (P11940 whole entry): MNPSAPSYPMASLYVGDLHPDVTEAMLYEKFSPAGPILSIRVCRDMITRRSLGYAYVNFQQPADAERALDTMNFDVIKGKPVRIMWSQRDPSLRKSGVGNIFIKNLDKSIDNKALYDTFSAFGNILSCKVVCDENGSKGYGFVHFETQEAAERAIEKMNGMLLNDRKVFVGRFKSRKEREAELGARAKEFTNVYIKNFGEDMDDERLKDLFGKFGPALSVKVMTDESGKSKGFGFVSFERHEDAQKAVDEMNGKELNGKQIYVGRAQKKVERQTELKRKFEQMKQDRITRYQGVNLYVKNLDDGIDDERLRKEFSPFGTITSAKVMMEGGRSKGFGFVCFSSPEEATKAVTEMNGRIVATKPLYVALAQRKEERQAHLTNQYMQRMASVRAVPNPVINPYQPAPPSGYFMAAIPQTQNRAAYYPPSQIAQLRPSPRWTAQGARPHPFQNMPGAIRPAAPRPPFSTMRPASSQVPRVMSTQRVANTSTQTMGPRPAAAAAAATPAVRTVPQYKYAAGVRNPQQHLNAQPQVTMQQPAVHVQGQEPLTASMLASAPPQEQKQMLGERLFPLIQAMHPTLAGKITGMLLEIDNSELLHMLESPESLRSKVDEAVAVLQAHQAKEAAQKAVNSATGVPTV
Sequence of Melanin-concentrating hormone receptor 1 (Q99705 whole entry): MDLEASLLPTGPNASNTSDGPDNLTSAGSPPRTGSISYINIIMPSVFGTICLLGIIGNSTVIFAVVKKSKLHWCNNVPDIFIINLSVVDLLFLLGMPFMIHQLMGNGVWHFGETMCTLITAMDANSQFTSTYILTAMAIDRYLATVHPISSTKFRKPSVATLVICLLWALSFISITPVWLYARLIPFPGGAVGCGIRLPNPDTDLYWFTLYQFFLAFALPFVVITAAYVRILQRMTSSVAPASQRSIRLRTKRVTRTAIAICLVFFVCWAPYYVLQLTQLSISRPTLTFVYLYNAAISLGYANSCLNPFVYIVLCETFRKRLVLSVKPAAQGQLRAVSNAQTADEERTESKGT
Sequence of Bcl-2-like protein 10 (Q9HD36 whole entry): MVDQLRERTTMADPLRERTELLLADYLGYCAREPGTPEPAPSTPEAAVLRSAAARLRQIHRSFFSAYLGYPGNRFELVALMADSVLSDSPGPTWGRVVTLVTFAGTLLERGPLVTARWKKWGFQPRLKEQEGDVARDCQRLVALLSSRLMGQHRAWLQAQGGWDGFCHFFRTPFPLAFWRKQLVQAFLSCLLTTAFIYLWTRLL
Sequence of Cytochrome P450 2C9 (P11712 whole entry): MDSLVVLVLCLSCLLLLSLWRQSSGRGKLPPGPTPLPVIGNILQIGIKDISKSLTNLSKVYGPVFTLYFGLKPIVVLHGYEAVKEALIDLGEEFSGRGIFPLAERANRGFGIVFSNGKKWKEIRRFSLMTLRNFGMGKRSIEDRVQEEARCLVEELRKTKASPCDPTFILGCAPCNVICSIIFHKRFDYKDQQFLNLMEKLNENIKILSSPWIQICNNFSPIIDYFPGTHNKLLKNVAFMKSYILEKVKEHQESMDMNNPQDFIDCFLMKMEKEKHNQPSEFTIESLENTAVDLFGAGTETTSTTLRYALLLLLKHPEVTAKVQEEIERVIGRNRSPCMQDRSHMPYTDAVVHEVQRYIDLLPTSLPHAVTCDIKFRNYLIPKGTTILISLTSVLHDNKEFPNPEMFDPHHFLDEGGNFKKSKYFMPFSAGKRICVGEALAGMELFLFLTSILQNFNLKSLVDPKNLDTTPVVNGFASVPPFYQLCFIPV
Sequence of Procathepsin L (P07711 whole entry): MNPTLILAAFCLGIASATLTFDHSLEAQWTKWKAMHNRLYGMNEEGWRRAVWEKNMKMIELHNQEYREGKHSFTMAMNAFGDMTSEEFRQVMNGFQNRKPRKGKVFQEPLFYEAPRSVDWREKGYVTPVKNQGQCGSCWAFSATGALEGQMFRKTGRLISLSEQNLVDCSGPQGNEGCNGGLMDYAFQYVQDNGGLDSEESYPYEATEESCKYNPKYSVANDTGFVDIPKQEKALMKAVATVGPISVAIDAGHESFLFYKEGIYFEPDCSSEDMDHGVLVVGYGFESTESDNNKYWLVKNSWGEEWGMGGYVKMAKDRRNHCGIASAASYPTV
Sequence of G-protein coupled receptor 55 (Q9Y2T6 whole entry): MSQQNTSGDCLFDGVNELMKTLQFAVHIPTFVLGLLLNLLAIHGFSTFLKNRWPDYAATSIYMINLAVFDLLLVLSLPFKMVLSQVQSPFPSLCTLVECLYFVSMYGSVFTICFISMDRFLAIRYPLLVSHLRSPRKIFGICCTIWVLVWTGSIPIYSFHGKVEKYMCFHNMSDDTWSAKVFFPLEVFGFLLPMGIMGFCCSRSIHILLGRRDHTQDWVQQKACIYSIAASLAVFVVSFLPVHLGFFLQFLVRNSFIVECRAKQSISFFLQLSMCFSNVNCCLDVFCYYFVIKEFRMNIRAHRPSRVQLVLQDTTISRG
Sequence of Aspartyl aminopeptidase (Q8I2J3 whole entry): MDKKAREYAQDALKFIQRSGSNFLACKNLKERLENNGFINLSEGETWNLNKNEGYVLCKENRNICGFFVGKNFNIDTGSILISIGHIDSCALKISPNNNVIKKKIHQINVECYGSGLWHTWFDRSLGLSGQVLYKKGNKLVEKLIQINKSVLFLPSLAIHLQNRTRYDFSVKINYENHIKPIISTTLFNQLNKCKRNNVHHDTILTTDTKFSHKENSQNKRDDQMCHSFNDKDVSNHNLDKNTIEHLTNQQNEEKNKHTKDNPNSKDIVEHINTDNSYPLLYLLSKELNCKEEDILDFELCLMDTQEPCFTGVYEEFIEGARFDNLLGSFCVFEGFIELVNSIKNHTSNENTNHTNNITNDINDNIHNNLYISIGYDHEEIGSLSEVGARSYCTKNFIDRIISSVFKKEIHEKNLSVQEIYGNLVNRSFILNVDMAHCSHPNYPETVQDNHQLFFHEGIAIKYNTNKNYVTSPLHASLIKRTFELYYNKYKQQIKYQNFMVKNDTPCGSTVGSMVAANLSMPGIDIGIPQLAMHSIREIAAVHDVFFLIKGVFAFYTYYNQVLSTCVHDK

COc1cccc(-c2cc(C(F)(F)F)nc(NCc3ccco3)n2)c1
EC50 [1]: > 50 µM (not active)

Cc1cc(C)n2c(S)nnc2n1
IC50 [2]: > 100 µM (inactive) | IC50 [3]: 43.2 µM (active) | IC50 (Procathepsin L): > 59.6 µM (not active) | IC50 [4]: 17 µM (active) | IC50 (Aspartyl aminopeptidase): 6.41 µM (active) | IC50 [5]: > 50 µM (not active)

Cc1ccc(N(C)C(=O)C2CCCN2S(=O)(=O)c2ccc3c(c2)n(C)c(=O)c(=O)n3C)cc1 (stereo not drawn)
AC50 (HeLa): 267 µM (active)

NC(=S)N/N=C/c1c[nH]c2ccc(OCc3ccccc3)cc12
EC50 [6]: 0.874 µM (active)

CC(C)C[C@@H](CC(=O)N[C@@H](CCCN)CC(=O)N[C@@H]1CCCC[C@H]1C(=O)N[C@H](CC(=O)N[C@@H](CCC(=O)O)CC(=O)O)CC(C)C)NC(=O)[C@@H]1CNCC[C@H]1N
AC50 (Cytochrome P450 2C9): 39.8 µM (inconclusive)

CC(Cc1ccc(F)cc1)NC(=O)c1cccs1 (stereo not drawn)
Kd (Chaperone protein dnaK): 28 µM (inactive)

c1cc2c3c(cccc3c1)NC1(CCCCC1)N2
IC50 (Bcl-2-like protein 10): 60.5 µM (inactive)

Cc1ccc2nc(-c3ccncc3)cc(C(=O)Nc3ccc(OC(F)F)cc3)c2c1
IC50 [7]: 5.69 µM (active) | IC50 [8]: 4.12 µM (active)

O=C1c2ccccc2C(=O)c2c1ccc1c(=O)n(-c3ccc(Cl)cc3)sc21
IC50 (Phosphomannomutase 2): > 100 µM (inactive) | IC50 [9]: > 50 µM (inactive) | IC50 [10]: 0.82 µM (active)

O=C(CN(Cc1cccs1)C(=O)c1cccnc1)NC1CCCCC1
EC50 [11]: > 20 µM (inactive)

O=c1cc(-c2ccccc2)[nH]n1-c1nc2ccccc2[nH]1
EC50 [12]: 2.73 µM (active) | EC50 [13]: 11.5 µM (active) | EC50 [14]: 17.1 µM (active) | EC50 [15]: 14.8 µM (active) | EC50 [16]: 2.21 µM (active) | IC50 [17]: 36.8 µM (active)

COCc1ccc(C(=O)OCC(=O)Nc2ccc([N+](=O)[O-])cc2OC)cc1
IC50 [18]: > 100 µM (inactive) | IC50 [19]: > 100 µM (inactive)

FC(F)(F)c1cccc(-c2cc3ccccc3nc2N2CCCC2)c1
EC50 [20]: 6.96 µM (active) | EC50 (Streptokinase A): 9.12 µM (active) | EC50 (Streptococcus [21]): > 500 µM (not active) | EC50 (Streptococcus [22]): > 150 µM (not active)

O=C(NCC(c1cccnc1)N1CCN(c2ccccc2)CC1)c1cccs1 (stereo not drawn)
IC50 (Staphylococcus aureus): 1.05 µM (active)

O=C(NCc1cccnc1)c1cc(-c2ccc(Cl)cc2)oc1C(F)(F)F
IC50 [23]: 11.9 µM (not active) | IC50 [24]: > 14.6 µM (not active)
